According to ChEMBL document CHEMBL1133958, “Derivatives of (2R,3R,4S)-2-aminomethylpyrrolidine-3,4-diol are selective alpha-mannosidase inhibitors” (Bioorg Med Chem Lett, 2001):
Activity calls are given as the source filed them. No cut-off for these calls is given here.

Assays:
[1] = target: T1, Beta-galactosidase (Bos taurus) (UniProt Q58D55); test: Percentage inhibition of Beta-galactosidase from Bovine liver at 1 mM concentration
T1 sequence (whole entry): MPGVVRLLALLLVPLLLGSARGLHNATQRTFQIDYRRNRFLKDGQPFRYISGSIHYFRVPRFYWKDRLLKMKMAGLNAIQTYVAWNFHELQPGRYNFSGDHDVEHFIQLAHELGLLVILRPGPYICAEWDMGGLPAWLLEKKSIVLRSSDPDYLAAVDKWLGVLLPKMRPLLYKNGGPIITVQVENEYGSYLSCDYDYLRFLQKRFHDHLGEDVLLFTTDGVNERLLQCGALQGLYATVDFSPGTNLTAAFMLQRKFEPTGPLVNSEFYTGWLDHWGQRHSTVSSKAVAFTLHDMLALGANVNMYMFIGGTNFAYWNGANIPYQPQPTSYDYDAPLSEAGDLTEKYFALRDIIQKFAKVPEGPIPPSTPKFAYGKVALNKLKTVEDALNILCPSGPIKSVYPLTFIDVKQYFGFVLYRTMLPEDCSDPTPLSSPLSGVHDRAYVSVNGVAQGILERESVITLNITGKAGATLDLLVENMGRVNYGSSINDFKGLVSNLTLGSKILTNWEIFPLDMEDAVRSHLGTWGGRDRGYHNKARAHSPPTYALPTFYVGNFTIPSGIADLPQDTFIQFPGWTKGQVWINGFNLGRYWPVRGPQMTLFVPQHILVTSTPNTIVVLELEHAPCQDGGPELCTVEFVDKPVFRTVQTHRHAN

Beta-glucosidase A [2] = target: T2, Beta-glucosidase A (Caldicellulosiruptor saccharolyticus, UniProt P10482); test: Inhibitory activity towards Beta-Glucosidase from Caldocellum saccharol.
[3] = Inhibitory activity towards Alpha-glucosidase from Yeast (maltase); parameters: species or system Saccharomyces cerevisiae
[4] = target: Glucoamylase (Aspergillus niger) (UniProt P69328); test: Percentage inhibition of Alpha-glucosidase from Aspergillus niger (amyloglucosidase) at 1 mM; No inhibition
[5] = Percentage inhibition of Beta-galactosidase from Jack bean at 1 mM concentration; conditions: Canavalia ensiformis
Saccharomyces cerevisiae [6] = test: Percentage inhibition of Alpha-glucosidase from Yeast (maltase) at 1 mM
[7] = test system: Alpha-mannosidase (Prunus dulcis); test: Percentage inhibition of Alpha-mannosidase from Almond at 1 mM
[8] = target: T3, Beta-galactosidase (Aspergillus niger) (UniProt P29853); test: Percentage inhibition of Beta-galactosidase from Aspergillus niger at 1 mM concentration; […]
T3 sequence (whole entry): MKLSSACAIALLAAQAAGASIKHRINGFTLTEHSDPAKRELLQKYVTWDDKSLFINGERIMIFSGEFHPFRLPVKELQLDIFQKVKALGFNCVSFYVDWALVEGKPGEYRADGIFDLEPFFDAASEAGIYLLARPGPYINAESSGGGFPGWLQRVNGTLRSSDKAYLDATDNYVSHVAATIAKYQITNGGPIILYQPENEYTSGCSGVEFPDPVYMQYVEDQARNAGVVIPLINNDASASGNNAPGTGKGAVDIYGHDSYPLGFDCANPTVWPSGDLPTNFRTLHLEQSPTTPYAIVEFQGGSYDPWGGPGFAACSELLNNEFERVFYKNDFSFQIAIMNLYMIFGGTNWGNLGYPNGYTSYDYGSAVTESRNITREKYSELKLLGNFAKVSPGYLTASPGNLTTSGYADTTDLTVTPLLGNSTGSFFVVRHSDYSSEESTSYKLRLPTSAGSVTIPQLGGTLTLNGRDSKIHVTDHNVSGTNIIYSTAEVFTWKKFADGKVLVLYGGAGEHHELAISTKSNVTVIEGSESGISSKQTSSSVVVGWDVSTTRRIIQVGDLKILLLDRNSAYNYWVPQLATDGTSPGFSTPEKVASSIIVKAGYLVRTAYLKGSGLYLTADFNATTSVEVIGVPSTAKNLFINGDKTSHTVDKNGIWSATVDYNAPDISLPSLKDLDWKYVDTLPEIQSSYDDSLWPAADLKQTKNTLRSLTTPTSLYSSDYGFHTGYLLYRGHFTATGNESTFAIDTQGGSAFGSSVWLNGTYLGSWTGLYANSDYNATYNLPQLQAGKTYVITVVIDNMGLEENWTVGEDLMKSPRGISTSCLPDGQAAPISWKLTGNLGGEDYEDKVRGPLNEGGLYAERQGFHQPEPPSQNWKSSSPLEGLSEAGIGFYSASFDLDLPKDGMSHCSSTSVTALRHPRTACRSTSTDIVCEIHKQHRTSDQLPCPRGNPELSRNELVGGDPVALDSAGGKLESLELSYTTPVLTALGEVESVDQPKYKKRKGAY

[9] = target: T4, Glucoamylase 1 (Rhizopus oryzae) (UniProt P07683); test: Percentage inhibition of Alpha-glucosidase from Rhizopus mold (amyloglucosidase) at 1 mM concentration; No inhibition; conditions: Rhizopus arrhizus
T4 sequence (whole entry): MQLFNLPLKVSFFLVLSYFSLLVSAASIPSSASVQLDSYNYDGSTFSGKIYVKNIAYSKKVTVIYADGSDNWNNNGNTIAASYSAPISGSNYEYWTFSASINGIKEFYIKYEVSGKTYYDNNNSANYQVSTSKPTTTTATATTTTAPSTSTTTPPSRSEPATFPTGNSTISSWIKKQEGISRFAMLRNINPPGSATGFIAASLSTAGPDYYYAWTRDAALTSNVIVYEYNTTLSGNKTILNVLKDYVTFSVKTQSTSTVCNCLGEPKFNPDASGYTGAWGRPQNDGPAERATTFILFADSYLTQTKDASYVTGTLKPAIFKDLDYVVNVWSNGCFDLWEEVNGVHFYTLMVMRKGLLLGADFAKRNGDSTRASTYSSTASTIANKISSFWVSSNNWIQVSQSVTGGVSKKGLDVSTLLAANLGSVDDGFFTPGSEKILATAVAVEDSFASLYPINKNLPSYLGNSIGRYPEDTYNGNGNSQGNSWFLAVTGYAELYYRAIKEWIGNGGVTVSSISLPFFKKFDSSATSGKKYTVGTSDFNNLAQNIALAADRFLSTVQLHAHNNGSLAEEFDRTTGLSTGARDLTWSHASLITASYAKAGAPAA

[10] = Percentage inhibition of Beta-galactosidase from Aspergillus oryzae at 1 mM; No inhibition
Beta-glucosidase A [11] = target: T2, Beta-glucosidase A; test: Inhibitory activity towards Beta-Glucosidase from Caldocellum saccharol
[12] = target: Beta-galactosidase (Escherichia coli K-12) (UniProt P00722); test: Percentage inhibition of Beta-galactosidase from Escherichia coli at 1 mM concentration
[13] = target: Beta-glucosidase A (Caldicellulosiruptor saccharolyticus) (UniProt P10482); test: Percentage inhibition of Beta-Glucosidase from Caldocellum saccharol. at 1 mM
[14] = Inhibitory activity towards Alpha-glucosidase from Baker yeast (isomaltase); parameters: species or system Saccharomyces cerevisiae
Saccharomyces cerevisiae [15] = test: Percentage inhibition of Alpha-glucosidase from Baker yeast (isomaltase) at 1 mM

T2 sequence (P10482 whole entry): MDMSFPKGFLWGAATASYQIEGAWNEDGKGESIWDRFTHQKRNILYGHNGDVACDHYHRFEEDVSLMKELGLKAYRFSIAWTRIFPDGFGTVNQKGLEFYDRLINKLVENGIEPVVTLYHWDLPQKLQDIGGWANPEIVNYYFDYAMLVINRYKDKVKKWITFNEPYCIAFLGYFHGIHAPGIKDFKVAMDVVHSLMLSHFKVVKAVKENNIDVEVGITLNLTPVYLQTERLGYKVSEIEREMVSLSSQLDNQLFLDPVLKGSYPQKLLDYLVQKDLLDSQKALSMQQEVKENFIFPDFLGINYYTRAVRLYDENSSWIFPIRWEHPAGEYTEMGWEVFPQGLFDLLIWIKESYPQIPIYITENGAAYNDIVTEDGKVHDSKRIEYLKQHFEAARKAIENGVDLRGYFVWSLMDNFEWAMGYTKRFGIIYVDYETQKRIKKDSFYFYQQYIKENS
Chain of Beta-glucosidase A (Caldicellulosiruptor saccharolyticus) (P10482 whole entry): as above
Chain of Glucoamylase (Aspergillus niger) (P69328 whole entry): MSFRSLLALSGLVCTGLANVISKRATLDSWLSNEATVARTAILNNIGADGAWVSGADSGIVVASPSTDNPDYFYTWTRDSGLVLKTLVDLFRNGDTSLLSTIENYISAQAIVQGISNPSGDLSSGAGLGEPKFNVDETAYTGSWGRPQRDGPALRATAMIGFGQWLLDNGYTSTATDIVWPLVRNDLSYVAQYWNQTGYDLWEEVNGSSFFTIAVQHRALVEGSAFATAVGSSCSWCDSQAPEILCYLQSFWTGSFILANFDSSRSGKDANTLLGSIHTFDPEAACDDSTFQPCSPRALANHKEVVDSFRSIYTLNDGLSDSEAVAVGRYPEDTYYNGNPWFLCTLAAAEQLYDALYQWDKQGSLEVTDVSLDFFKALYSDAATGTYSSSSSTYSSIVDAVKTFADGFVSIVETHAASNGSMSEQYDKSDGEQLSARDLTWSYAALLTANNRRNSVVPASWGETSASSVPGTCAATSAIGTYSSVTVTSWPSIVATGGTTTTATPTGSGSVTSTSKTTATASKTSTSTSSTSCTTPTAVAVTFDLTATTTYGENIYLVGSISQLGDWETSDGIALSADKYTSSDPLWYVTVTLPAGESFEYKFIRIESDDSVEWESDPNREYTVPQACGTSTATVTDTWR
Chain of Beta-galactosidase (Escherichia coli K-12) (P00722 whole entry): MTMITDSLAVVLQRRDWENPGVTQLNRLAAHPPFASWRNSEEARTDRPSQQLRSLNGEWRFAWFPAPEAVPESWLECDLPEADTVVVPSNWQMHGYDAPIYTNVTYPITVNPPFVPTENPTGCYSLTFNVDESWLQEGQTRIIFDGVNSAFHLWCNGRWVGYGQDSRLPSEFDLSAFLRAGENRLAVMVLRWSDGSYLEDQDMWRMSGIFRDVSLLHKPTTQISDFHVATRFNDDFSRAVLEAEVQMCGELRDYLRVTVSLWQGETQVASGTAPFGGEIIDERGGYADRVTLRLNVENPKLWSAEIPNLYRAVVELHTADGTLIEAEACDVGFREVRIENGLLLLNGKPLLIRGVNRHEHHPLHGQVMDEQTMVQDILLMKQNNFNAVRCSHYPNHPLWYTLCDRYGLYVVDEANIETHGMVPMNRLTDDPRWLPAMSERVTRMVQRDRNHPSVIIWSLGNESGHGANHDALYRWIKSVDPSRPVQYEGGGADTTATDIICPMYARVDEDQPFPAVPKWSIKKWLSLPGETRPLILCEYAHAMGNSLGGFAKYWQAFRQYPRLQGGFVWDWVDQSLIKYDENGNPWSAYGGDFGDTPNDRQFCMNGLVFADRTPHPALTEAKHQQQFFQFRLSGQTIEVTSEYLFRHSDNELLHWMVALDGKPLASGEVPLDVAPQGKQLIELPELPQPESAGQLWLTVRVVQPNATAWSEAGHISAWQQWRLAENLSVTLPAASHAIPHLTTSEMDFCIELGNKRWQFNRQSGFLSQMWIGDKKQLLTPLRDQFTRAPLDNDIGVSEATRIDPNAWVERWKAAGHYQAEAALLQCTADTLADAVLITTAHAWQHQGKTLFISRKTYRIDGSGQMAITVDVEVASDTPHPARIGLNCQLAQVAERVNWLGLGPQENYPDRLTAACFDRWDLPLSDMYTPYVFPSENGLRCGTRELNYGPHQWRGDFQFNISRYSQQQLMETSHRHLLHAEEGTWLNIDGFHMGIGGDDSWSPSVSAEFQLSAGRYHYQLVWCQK

Q: Which inhibition [1] does the source give for `OC1CNC(CNCC2CCN(Cc3ccccc3)CC2)C1O` (stereo unspecified) here?
A: 53%

Q: And the IC50 (Beta-glucosidase A [2])?
A: 290 µM

Q: And the IC50 [3]?
A: 610 µM

Q: And the inhibition [4]?
A: inactive

Q: What about the inhibition [5] of the same compound?
A: 26%

Q: And the inhibition (Saccharomyces cerevisiae [6])?
A: 55%

Q: What about the inhibition [7] of the same compound?
A: 59%

Q: What about the inhibition [8] of the same compound?
A: inactive

Q: What about the inhibition [9] of the same compound?
A: inactive

Q: What about the inhibition [10] of the same compound?
A: inactive

Q: And the Ki (Beta-glucosidase A [11])?
A: 120 µM

Q: What about the inhibition [12] of the same compound?
A: 39%

Q: And the inhibition [13]?
A: 76%

Q: And the IC50 [14]?
A: 120 µM

Q: What about the Ki [14] of the same compound?
A: 40 µM

Q: And the inhibition (Saccharomyces cerevisiae [15])?
A: 90%
